Assay results taken from PubChem BioAssay AID1963826 (Molecular Pharmacology Branch, DTP, NCI, 2024).

Test system: 926638-142-R-J1-PDC complex spheroid viability
Assay: Anticancer human tumor 926638-142-R-J1-PDC patient-derived endometrial carcinoma cell line growth inhibition [POLQ]
Conditions: for IC50: curve of first compound; for viability, T/C: stronger effect = lower value
In short: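 Patient-derived tumour cells were co-cultured with HUVEC and mesenchymal stem cells as multicellular spheroids at 37 °C. They were treated with POLQ inhibitors (novobiocin, ART-558, RP6685) alone or combined with other agents. Top concentrations were at or near clinical Cmax (otherwise 10 microM; SN-38 at 1 microM), decreasing in half-log steps.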
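Further: spheroids exposed to drugs for one week before readout.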
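Wherever viability, T/C is given: percent viability relative to DMSO vehicle control wells set as 100%.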

## C=CC(=O)N1CCN(c2nc(=O)n(-c3c(C)ccnc3C(C)C)c3nc(-c4c(O)cccc4F)c(F)cc23)C(C)C1 (configuration not stated) + Nc1ccc(C#CCN(C(=O)Cc2ncc(C(F)(F)F)cc2C(F)(F)F)c2ccc(F)cc2)nn1
Second compound 0.0316 µM
  IC50: > 10 µM
Second compound 0.1 µM
  IC50: > 10 µM
Second compound 0.316 µM
  IC50: > 10 µM
Second compound 1 µM
  IC50: > 10 µM
Second compound 3.16 µM
  IC50: > 10 µM
Second compound 10 µM
  IC50: > 10 µM
Second compound 0.0316 µM, first compound 0.0316 µM
  viability, T/C: 93.4%
Second compound 0.0316 µM, first compound 0.1 µM
  viability, T/C: 106%
Second compound 0.0316 µM, first compound 0.316 µM
  viability, T/C: 98.1%
Second compound 0.0316 µM, first compound 1 µM
  viability, T/C: 92.5%
Second compound 0.0316 µM, first compound 3.16 µM
  viability, T/C: 88.4%
Second compound 0.0316 µM, first compound 10 µM
  viability, T/C: 52.5%
Second compound 0.1 µM, first compound 0.0316 µM
  viability, T/C: 107%
Second compound 0.1 µM, first compound 0.1 µM
  viability, T/C: 103%
Second compound 0.1 µM, first compound 0.316 µM
  viability, T/C: 93.2%
Second compound 0.1 µM, first compound 1 µM
  viability, T/C: 86.6%
Second compound 0.1 µM, first compound 3.16 µM
  viability, T/C: 87.8%
Second compound 0.1 µM, first compound 10 µM
  viability, T/C: 55.8%
Second compound 0.316 µM, first compound 0.0316 µM
  viability, T/C: 108%
Second compound 0.316 µM, first compound 0.1 µM
  viability, T/C: 91%
Second compound 0.316 µM, first compound 0.316 µM
  viability, T/C: 79.8%
Second compound 0.316 µM, first compound 1 µM
  viability, T/C: 90.1%
Second compound 0.316 µM, first compound 3.16 µM
  viability, T/C: 86.4%
Second compound 0.316 µM, first compound 10 µM
  viability, T/C: 53%
Second compound 1 µM, first compound 0.0316 µM
  viability, T/C: 106%
Second compound 1 µM, first compound 0.1 µM
  viability, T/C: 86.8%
Second compound 1 µM, first compound 0.316 µM
  viability, T/C: 94.6%
Second compound 1 µM, first compound 1 µM
  viability, T/C: 82.3%
Second compound 1 µM, first compound 3.16 µM
  viability, T/C: 85.1%
Second compound 1 µM, first compound 10 µM
  viability, T/C: 53.5%
Second compound 3.16 µM, first compound 0.0316 µM
  viability, T/C: 93%
Second compound 3.16 µM, first compound 0.1 µM
  viability, T/C: 99.7%
Second compound 3.16 µM, first compound 0.316 µM
  viability, T/C: 89.5%
Second compound 3.16 µM, first compound 1 µM
  viability, T/C: 93.6%
Second compound 3.16 µM, first compound 3.16 µM
  viability, T/C: 73.8%
Second compound 3.16 µM, first compound 10 µM
  viability, T/C: 53.8%
Second compound 10 µM, first compound 0.0316 µM
  viability, T/C: 94.4%
Second compound 10 µM, first compound 0.1 µM
  viability, T/C: 98.5%
Second compound 10 µM, first compound 0.316 µM
  viability, T/C: 78.2%
Second compound 10 µM, first compound 1 µM
  viability, T/C: 78.7%
Second compound 10 µM, first compound 3.16 µM
  viability, T/C: 87%
Second compound 10 µM, first compound 10 µM
  viability, T/C: 60.4%
